From patent US10597388B2, “Pyridazinone herbicides” (FMC CORPORATION, priority 2014, dated 2020)

Assays:
Experiment in all cases: Test C greenhouse herbicide test, pre- and postemergence
Type in all cases: in vivo
soybean (Glycine max) = tested on: soybean (Glycine max)
How it was run: (§1)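 Pre- and postemergence greenhouse screen; values are visual control ratings, 0 meaning no effect and 100 complete kill, assigned relative to untreated plants after 13 to 15 d.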

[1] = tested on: barnyardgrass (Echinochloa crus-galli)
How it was run: as §1

[2] = tested on: wheat (winter wheat, Triticum aestivum)
How it was run: as §1

[3] = tested on: ryegrass, Italian (Italian ryegrass, Lolium multiflorum)
How it was run: as §1

[4] = tested on: nutsedge, yellow (yellow nutsedge, Cyperus esculentus)
How it was run: as §1

[5] = tested on: galium (catchweed bedstraw, Galium aparine)
How it was run: as §1

[6] = tested on: foxtail, giant (giant foxtail, Setaria faberii)
How it was run: as §1

[7] = tested on: blackgrass (Alopecurus myosuroides)
How it was run: as §1

[8] = tested on: johnsongrass (Sorghum halepense)
How it was run: as §1

corn (Zea mays) = tested on: corn (Zea mays)
How it was run: as §1

[9] = tested on: velvetleaf (Abutilon theophrasti)
How it was run: as §1

[10] = tested on: crabgrass, large (large crabgrass, Digitaria sanguinalis)
How it was run: as §1

[11] = Postemergence, 31 g ai/ha, 0 to 100 scale (0 no effect, 100 complete control)
[12] = Postemergence, 125 g ai/ha, scale 0 to 100, 0 is no effect, 100 is complete control
[13] = Postemergence, 250 g ai/ha, scale 0 to 100, 0 no effect, 100 complete control, 13 to 15 d
[14] = Preemergence, 62 g ai/ha, scale 0 to 100, 0 is no effect, 100 is complete control
[15] = Preemergence, 125 g ai/ha, scale 0 to 100, 0 is no effect, 100 is complete control
[16] = Preemergence, 250 g ai/ha, scale 0 to 100, 0 no effect, 100 complete control
[17] = postemergence, 62 g ai/ha, scale 0 to 100, 0 no effect, 100 complete control
[18] = Preemergence, 31 g ai/ha, scale 0 to 100, 0 is no effect, 100 is complete control

Cc1ccc2ccccc2c1-c1c(O)c(Br)nn(C)c1=O [Compound 23]
Soybean plant response rating (soybean (Glycine max); [11]): 5
Plant response rating, Soybean (soybean (Glycine max); [12]): 10
Plant response rating, Soybean (soybean (Glycine max); [13]): 15
Plant response rating, Soybean (soybean (Glycine max); [14]): 0
Plant response rating, Soybean (soybean (Glycine max); [15]): 5
Soybean plant response rating (soybean (Glycine max); [16]): 55
Soybean plant response rating (soybean (Glycine max); [17]): 10
Barnyardgrass plant response rating [1, 11]: 40
Plant response rating, Barnyardgrass [1, 12]: 75
Plant response rating, Barnyardgrass [1, 13]: 85
Plant response rating, Barnyardgrass [1, 18]: 10
Plant response rating, Barnyardgrass [1, 14]: 85
Plant response rating, Barnyardgrass [1, 15]: 85
Barnyardgrass plant response rating [1, 16]: 85
Barnyardgrass plant response rating [1, 17]: 60
Wheat plant response rating [2, 11]: 10
Plant response rating, Wheat [2, 12]: 35
Plant response rating, Wheat [2, 13]: 30
Plant response rating, Wheat [2, 14]: 85
Plant response rating, Wheat [2, 15]: 90
Wheat plant response rating [2, 16]: 90
Wheat plant response rating [2, 17]: 30
Ryegrass, Italian plant response rating [3, 11]: 85
Plant response rating, Ryegrass, Italian [3, 12]: 95
Plant response rating, Ryegrass, Italian [3, 13]: 95
Plant response rating, Ryegrass, Italian [3, 18]: 85
Plant response rating, Ryegrass, Italian [3, 14]: 90
Plant response rating, Ryegrass, Italian [3, 15]: 95
Ryegrass, Italian plant response rating [3, 16]: 95
Ryegrass, Italian plant response rating [3, 17]: 90
Nutsedge, Yellow plant response rating [4, 11]: 60
Plant response rating, Nutsedge, Yellow [4, 12]: 85
Plant response rating, Nutsedge, Yellow [4, 13]: 85
Plant response rating, Nutsedge, Yellow [4, 18]: 40
Plant response rating, Nutsedge, Yellow [4, 14]: 90
Plant response rating, Nutsedge, Yellow [4, 15]: 85
Nutsedge, Yellow plant response rating [4, 16]: 90
Nutsedge, Yellow plant response rating [4, 17]: 70
Galium plant response rating [5, 11]: 95
Plant response rating, Galium [5, 12]: 100
Plant response rating, Galium [5, 13]: 100
Plant response rating, Galium [5, 18]: 98
Plant response rating, Galium [5, 14]: 100
Plant response rating, Galium [5, 15]: 100
Galium plant response rating [5, 16]: 100
Galium plant response rating [5, 17]: 100
Foxtail, Giant plant response rating [6, 11]: 30
Plant response rating, Foxtail, Giant [6, 12]: 85
Plant response rating, Foxtail, Giant [6, 13]: 90
Plant response rating, Foxtail, Giant [6, 18]: 30
Plant response rating, Foxtail, Giant [6, 14]: 85
Plant response rating, Foxtail, Giant [6, 15]: 85
Foxtail, Giant plant response rating [6, 16]: 100
Foxtail, Giant plant response rating [6, 17]: 65
Blackgrass plant response rating [7, 11]: 50
Plant response rating, Blackgrass [7, 12]: 70
Plant response rating, Blackgrass [7, 13]: 85
Plant response rating, Blackgrass [7, 18]: 45
Plant response rating, Blackgrass [7, 14]: 85
Plant response rating, Blackgrass [7, 15]: 90
Blackgrass plant response rating [7, 16]: 90
Blackgrass plant response rating [7, 17]: 60
Johnsongrass plant response rating [8, 11]: 5
Plant response rating, Johnsongrass [8, 12]: 10
Plant response rating, Johnsongrass [8, 13]: 40
Plant response rating, Johnsongrass [8, 18]: 5
Plant response rating, Johnsongrass [8, 14]: 5
Plant response rating, Johnsongrass [8, 15]: 35
Johnsongrass plant response rating [8, 16]: 35
Johnsongrass plant response rating [8, 17]: 5
Corn plant response rating (corn (Zea mays); [11]): 10
Plant response rating, Corn (corn (Zea mays); [12]): 10
Plant response rating, Corn (corn (Zea mays); [13]): 25
Plant response rating, Corn (corn (Zea mays); [18]): 0
Plant response rating, Corn (corn (Zea mays); [14]): 0
Plant response rating, Corn (corn (Zea mays); [15]): 30
Corn plant response rating (corn (Zea mays); [16]): 65
Corn plant response rating (corn (Zea mays); [17]): 30
Velvetleaf plant response rating [9, 11]: 70
Plant response rating, Velvetleaf [9, 12]: 85
Plant response rating, Velvetleaf [9, 13]: 90
Plant response rating, Velvetleaf [9, 14]: 90
Plant response rating, Velvetleaf [9, 15]: 100
Velvetleaf plant response rating [9, 16]: 100
Velvetleaf plant response rating [9, 17]: 85
Crabgrass, Large plant response rating [10, 11]: 5
Plant response rating, Crabgrass, Large [10, 12]: 35
Plant response rating, Crabgrass, Large [10, 13]: 45
Plant response rating, Crabgrass, Large [10, 18]: 5
Plant response rating, Crabgrass, Large [10, 14]: 45
Plant response rating, Crabgrass, Large [10, 15]: 75
Crabgrass, Large plant response rating [10, 16]: 95
Crabgrass, Large plant response rating [10, 17]: 20

Cc1ccc2sc(C)c(-c3c(OC(=O)C(C)(C)C)c(C)nn(C)c3=O)c2c1 [Compound 26]
Soybean plant response rating (soybean (Glycine max); [11]): 5
Plant response rating, Soybean (soybean (Glycine max); [12]): 10
Plant response rating, Soybean (soybean (Glycine max); [13]): 10
Soybean plant response rating (soybean (Glycine max); [17]): 5
Barnyardgrass plant response rating [1, 11]: 20
Plant response rating, Barnyardgrass [1, 12]: 30
Plant response rating, Barnyardgrass [1, 13]: 35
Barnyardgrass plant response rating [1, 17]: 25
Wheat plant response rating [2, 11]: 0
Plant response rating, Wheat [2, 12]: 0
Plant response rating, Wheat [2, 13]: 5
Wheat plant response rating [2, 17]: 0
Ryegrass, Italian plant response rating [3, 11]: 85
Plant response rating, Ryegrass, Italian [3, 12]: 90
Plant response rating, Ryegrass, Italian [3, 13]: 90
Ryegrass, Italian plant response rating [3, 17]: 90
Nutsedge, Yellow plant response rating [4, 11]: 5
Plant response rating, Nutsedge, Yellow [4, 12]: 20
Plant response rating, Nutsedge, Yellow [4, 13]: 25
Nutsedge, Yellow plant response rating [4, 17]: 10
Galium plant response rating [5, 11]: 90
Plant response rating, Galium [5, 12]: 95
Plant response rating, Galium [5, 13]: 95
Galium plant response rating [5, 17]: 95
Foxtail, Giant plant response rating [6, 11]: 15
Plant response rating, Foxtail, Giant [6, 12]: 40
Plant response rating, Foxtail, Giant [6, 13]: 65
Foxtail, Giant plant response rating [6, 17]: 25
Blackgrass plant response rating [7, 11]: 50
Plant response rating, Blackgrass [7, 12]: 60
Plant response rating, Blackgrass [7, 13]: 75
Blackgrass plant response rating [7, 17]: 55
Johnsongrass plant response rating [8, 11]: 5
Plant response rating, Johnsongrass [8, 12]: 5
Plant response rating, Johnsongrass [8, 13]: 5
Johnsongrass plant response rating [8, 17]: 5
Corn plant response rating (corn (Zea mays); [11]): 0
Plant response rating, Corn (corn (Zea mays); [12]): 5
Plant response rating, Corn (corn (Zea mays); [13]): 5
Corn plant response rating (corn (Zea mays); [17]): 10
Velvetleaf plant response rating [9, 11]: 5
Plant response rating, Velvetleaf [9, 12]: 60
Plant response rating, Velvetleaf [9, 13]: 70
Velvetleaf plant response rating [9, 17]: 30
Crabgrass, Large plant response rating [10, 11]: 5
Plant response rating, Crabgrass, Large [10, 12]: 20
Plant response rating, Crabgrass, Large [10, 13]: 25
Crabgrass, Large plant response rating [10, 17]: 20
